Earlier results in patent US9763924B2, “Aminoester derivatives” (CHIESI FARMACEUTICI S.P.A., priority 2014, dated 2017).

Test system: COPD patients
[1] = patients with severe disease who have frequent exacerbations and mucus hypersecretion

SMILES: O=C(Nc1c(Cl)cncc1Cl)c1ccc(OC(F)F)c(OCC2CC2)c1 [roflumilast]
- reduction of the numbers of neutrophils in sputum (COPD patients, oral, given over 4 weeks): 36%
- improvement of FEV 1 [1]: approximately 50 mL
- reduction of exacerbation [1]: about 15%
